Test [1] deals with patients with HER2/neu+ breast cancer. The conditions noted are these: clinical vaccines in HER2/neu+ breast cancer; cited from earlier work.
A further test concerns CD8 T lymphocytes. Nature of the test: HLA-A2:Ig dimer staining with control peptide-loaded dimers. The conditions noted are these: almost 2000 peripheral blood samples from about 200-300 patients. The format is cell-based, human.

“And” between values parts separate entries of the source, which are not always exact repeats. Equal entries are not always repeated.

For IISAVVGIL [GP2], the “safety and stimulation of antigen-specific immunity” value in test [1] was “safe and effective in stimulating antigen-specific immunity”. Turning to “NH2-RIAWARTEL-COOH (H-RIAWARTEL-OH) [E37]”, in the test with CD8 T lymphocytes, the “background binding value of negative control dimers” value was 03% and 0.25-0.34%.

Source of the values: patent US20160258951A1, “METHODS OF MONITORING IMMUNE RESPONSES” (THE HENRY M. JACKSON FOUNDATION FOR THE ADVANCEMENT OF …, priority 2013, published 2016).
